The values below come from patent US10261079B2, “Method for determining kinetic profiles in drug discovery” (priority 2015, dated 2019).

SMILES strings stand for the structures.

The target of one assay is T1, PI3Kdelta (Homo sapiens, UniProt O00329).
T1 construct: purchased Carna Biosciences
Put plainly: TR-FRET kinetic competitive binding, Binding Kinetic Profiling mode. As to conditions: Tracer 314 5 nM, compound 250 nM to 0. In general terms: TR-FRET usually uses a lanthanide donor and a delayed reading to cut background.

For the next assay, the target named is CDK8/Cyclin C (Homo sapiens, UniProt P49336). Kind of assay: TR-FRET kinetic competitive binding, Kinetic Selectivity Profiling mode. The conditions noted are these: Tracer 236 10 nM, kinase 2 nM.
CDK8/Cyclin C, sequence (P49336 whole entry, species assumed): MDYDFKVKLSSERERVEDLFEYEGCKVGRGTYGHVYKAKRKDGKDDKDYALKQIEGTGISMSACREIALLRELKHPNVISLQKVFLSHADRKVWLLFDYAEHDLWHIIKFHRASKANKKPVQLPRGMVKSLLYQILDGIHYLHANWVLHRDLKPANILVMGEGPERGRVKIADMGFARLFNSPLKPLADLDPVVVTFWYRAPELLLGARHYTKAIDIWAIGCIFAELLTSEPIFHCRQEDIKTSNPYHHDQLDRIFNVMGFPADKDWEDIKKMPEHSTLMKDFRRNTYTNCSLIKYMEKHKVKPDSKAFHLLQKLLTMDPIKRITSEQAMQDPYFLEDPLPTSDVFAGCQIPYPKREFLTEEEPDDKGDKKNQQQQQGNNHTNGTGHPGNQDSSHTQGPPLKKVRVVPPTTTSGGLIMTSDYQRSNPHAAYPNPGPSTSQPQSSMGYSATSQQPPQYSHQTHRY
CDK8/Cyclin C, sequence (P24863 whole entry partner, species assumed): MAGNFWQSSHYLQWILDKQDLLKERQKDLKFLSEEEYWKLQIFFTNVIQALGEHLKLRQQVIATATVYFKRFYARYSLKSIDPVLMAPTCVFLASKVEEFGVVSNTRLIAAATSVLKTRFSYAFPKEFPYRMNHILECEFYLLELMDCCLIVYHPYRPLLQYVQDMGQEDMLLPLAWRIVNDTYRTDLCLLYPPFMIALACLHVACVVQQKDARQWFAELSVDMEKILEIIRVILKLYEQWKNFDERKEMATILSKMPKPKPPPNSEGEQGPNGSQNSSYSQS

T1 sequence (O00329 whole entry): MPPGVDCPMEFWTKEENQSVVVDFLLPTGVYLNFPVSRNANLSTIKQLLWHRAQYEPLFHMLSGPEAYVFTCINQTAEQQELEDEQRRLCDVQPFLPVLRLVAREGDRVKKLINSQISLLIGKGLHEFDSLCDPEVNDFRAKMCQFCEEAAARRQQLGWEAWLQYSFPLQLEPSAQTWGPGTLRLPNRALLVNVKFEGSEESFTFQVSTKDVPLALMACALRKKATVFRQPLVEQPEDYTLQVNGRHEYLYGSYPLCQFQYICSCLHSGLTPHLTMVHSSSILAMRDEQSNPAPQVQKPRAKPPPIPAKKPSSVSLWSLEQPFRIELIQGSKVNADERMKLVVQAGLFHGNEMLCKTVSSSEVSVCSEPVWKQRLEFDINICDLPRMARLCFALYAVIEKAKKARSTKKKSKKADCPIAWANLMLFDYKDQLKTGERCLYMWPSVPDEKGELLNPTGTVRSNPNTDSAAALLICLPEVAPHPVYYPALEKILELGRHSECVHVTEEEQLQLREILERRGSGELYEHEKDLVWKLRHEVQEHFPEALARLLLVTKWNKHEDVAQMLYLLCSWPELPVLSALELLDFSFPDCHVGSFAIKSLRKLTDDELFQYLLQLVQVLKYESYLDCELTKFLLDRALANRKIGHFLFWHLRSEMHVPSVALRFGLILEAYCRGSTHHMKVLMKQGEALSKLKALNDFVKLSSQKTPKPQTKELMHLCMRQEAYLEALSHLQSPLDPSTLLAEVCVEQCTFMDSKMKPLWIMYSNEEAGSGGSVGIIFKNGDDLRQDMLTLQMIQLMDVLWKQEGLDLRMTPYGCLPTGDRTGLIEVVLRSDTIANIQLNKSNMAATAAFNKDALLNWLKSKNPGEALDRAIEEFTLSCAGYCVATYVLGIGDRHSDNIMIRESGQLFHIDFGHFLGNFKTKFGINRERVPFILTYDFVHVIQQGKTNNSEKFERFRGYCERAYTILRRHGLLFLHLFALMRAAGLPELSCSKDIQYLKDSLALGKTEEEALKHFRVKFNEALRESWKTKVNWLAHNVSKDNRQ
T1 sequence (P27986 whole entry partner): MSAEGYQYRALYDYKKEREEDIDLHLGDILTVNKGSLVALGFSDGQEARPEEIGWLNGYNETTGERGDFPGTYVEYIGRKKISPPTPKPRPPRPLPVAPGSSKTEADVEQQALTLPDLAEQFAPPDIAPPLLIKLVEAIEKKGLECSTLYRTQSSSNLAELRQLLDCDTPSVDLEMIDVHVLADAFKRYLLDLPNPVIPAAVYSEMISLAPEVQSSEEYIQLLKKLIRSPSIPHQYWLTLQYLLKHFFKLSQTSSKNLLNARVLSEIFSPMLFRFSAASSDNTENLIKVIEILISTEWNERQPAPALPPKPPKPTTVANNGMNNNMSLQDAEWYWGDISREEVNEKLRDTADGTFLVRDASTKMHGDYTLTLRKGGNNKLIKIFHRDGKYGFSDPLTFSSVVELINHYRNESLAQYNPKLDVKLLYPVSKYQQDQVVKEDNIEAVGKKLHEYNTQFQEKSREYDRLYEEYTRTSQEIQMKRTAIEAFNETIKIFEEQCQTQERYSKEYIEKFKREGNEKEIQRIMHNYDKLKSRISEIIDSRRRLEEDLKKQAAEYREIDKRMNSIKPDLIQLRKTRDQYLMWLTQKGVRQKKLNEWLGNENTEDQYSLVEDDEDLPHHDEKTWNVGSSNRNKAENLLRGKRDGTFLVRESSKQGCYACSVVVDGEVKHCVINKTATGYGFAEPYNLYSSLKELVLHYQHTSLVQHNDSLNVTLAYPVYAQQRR
Text for CDK8/Cyclin C: SQRT is the mathematical abbreviation for squared root. X is time, expressed in min.
Text for PI3Kdelta: X is time, expressed in min.
The present example illustrates the kinetic characterization of two different inhibitors against the same target by using the platform of the invention in the Binding Kinetic Profiling mode. […] The characterized Tracer^314 (Life Technologies) has been used as labeled ligand (tracer).
In order to determine the kinetic profile of these inhibitors (Kon, Koff, Kd and t1/2), experimental data were fitted to the “Kinetics of competitive binding”. This model describes the kinetic behavior of two compounds when compete for the binding to the same target.
The experiment is performed as described in Example 1 for the tracer characterization. The samples are prepared in the kinase buffer A at the same concentrations described in example 1 (PI3Kdelta at 0.5 nM and Eu-antiGST antibody at 2 nM). Control wells in the microplate with PI-103 inhibitor at 10 μM are also included to account for unspecific binding. […] These serial dilutions were prepared in a mother plate (at 2 times the assay concentration) and quickly dispensed to the analysis plate, being the last one disposed in the well the kinase PI3Kdelta.
The tracer concentration (L) is also constrained to the tracer concentration employed in the assay, i.e., 5 nM in the present example. […] The term t1/2 is calculated as −ln[0.5] divided by the K4 value.

Regarding `Cn1c(=O)n(-c2ccc(C(C)(C)C#N)cc2)c2c3cc(-c4cnc5ccccc5c4)ccc3ncc21` [BEZ235], the “dissociation from the target” value on PI3Kdelta is “mili-seconds”.
On to `CN[C@@H]1C[C@H]2O[C@@](C)([C@@H]1OC)n1c3ccccc3c3c4c(c5c6ccccc6n2c5c31)C(=O)NC4` [Staurosporine], for which, at CDK8/Cyclin C, the “duration of the interaction with CDK8” value came to 20 min.
In the case of `COC[C@H]1OC(=O)c2coc3c2[C@@]1(C)C1=C(C3=O)[C@@H]2CCC(=O)[C@@]2(C)C[C@H]1OC(C)=O` [Wortmanine], at PI3Kdelta, the “dissociative half-life of the complex with PI3Kdelta (t1/2)” value is given as “around 300 min”.
